Measured values from patent US10669269B2, “Substituted N-(1H-indazol-4-yl)imidazo[1,2-a]pyridine-3-carboxamide compounds as type III receptor tyrosine kinase inhibitors” (ARRAY BIOPHARMA INC., priority 2010, dated 2020).
Structures can show the parent of a compound that is named as a salt.

Assays:
[1] = target: T1, c-KIT (Homo sapiens, UniProt P10721); experiment: c-KIT Cell-Based Assay (Example D); settings: averaged IC50; phospho-c-KIT in M-07e cells stimulated with 150 ng/ml recombinant human SCF; read-out: cKIT Cell ELISA IC50
T1 construct: M-07e cells (human acute megakaryoblastic leukemia cell line) were serum-starved for 4 hours; endogenous in cells; host or cells: M-07e cells (human acute megakaryoblastic leukemia cell line)
T1 sequence (P10721 26-976): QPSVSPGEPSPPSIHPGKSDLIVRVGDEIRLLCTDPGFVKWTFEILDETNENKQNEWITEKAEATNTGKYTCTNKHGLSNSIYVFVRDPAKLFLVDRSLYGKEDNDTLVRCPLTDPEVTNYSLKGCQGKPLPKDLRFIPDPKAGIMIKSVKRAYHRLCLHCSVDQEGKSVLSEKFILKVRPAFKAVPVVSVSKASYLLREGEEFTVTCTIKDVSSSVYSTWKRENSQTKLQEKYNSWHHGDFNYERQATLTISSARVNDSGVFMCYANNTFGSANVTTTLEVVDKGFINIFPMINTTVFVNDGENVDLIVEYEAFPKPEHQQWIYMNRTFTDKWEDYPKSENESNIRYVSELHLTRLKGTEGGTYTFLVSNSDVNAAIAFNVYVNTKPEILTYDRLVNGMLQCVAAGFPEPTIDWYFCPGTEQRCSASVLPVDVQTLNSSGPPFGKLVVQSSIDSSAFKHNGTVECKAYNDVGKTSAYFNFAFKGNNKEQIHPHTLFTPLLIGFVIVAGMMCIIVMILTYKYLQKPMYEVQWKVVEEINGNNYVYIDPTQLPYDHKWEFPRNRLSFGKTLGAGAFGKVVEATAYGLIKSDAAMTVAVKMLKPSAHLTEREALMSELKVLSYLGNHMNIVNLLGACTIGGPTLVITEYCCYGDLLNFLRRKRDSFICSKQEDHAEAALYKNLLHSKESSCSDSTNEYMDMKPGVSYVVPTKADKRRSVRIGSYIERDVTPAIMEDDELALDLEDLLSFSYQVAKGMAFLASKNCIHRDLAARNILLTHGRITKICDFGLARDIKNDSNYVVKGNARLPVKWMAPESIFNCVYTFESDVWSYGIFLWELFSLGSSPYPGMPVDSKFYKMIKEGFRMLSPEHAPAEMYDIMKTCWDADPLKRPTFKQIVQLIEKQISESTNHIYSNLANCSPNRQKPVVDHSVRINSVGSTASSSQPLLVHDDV
Experimental: The ability of compounds of Formula I to inhibit c-KIT activation in cells was determined by the following assay. M-07e cells (human acute megakaryoblastic leukemia cell line) were serum-starved for 4 hours prior to treatment with compounds of Formula I for 1 hour. The concentration of compounds of Formula I was varied over a 9-point, 3-fold dilution series with 5,000 nM typically being the highest dose. Cell culture and treatment were carried out in a humidified 37° C., 5% CO2 incubator. Treated cells were stimulated with 150 ng/ml recombinant human SCF for 4 minutes to induce activation of c-KIT. Cells were lysed in a manner which preserves phosphoproteins, and the lysate was analyzed by ELISA (R&D Systems, Human Phospho-SCF R DuoSet IC DYC3527), in which total c-KIT protein in the lysate is captured and phosphotyrosine residues of c-Kit are detected. A standard curve, made using purified phospho-SCF R protein, was used to quantify phospho-c-KIT in compound-treated wells. A standard 4-parameter logistic model was fit to the inhibitor dose response curves, with the IC50 being defined as the concentration of inhibitor giving 50 percent of control (POC).

[2] = target: T2, cFMS (Homo sapiens, UniProt P07333); experiment: cFMS Cell-Based Assay (Example C); settings: averaged IC50; phospho-cFMS in THP-1 cells stimulated with 250 ng/mL recombinant human MCSF; read-out: cFMS Cell ELISA IC50
T2 construct: THP-1 cells (human acute monocytic leukemia cell line) were serum-starved for 4 hours; endogenous in cells; host or cells: THP-1 cells (human acute monocytic leukemia cell line)
T2 sequence (P07333 20-972): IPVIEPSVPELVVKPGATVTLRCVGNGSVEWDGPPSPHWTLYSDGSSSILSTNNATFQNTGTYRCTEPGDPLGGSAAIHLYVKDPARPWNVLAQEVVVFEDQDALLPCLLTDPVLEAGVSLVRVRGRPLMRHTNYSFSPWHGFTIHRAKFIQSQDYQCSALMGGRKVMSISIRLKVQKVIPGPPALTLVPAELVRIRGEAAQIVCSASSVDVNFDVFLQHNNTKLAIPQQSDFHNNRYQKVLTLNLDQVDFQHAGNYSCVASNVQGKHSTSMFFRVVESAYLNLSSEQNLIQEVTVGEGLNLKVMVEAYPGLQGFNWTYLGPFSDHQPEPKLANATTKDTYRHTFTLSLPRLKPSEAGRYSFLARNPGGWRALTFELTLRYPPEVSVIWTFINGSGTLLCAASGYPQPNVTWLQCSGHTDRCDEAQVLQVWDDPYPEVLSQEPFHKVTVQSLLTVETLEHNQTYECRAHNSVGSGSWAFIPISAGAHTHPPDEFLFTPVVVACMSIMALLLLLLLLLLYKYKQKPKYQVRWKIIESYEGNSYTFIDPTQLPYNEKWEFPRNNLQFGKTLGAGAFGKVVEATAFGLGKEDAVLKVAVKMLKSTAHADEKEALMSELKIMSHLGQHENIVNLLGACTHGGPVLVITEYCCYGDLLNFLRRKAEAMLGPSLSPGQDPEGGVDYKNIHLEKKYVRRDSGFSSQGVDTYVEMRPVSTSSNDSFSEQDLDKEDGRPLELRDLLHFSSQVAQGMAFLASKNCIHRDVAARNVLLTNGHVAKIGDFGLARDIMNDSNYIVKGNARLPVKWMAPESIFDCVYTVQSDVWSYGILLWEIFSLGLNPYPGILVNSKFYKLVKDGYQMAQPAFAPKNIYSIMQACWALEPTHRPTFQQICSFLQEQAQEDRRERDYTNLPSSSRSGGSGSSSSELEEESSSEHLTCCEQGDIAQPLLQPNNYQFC
Experimental: The ability of compounds of Formula I to inhibit cFMS activation in cells was determined by the following assay. THP-1 cells (human acute monocytic leukemia cell line) were serum-starved for 4 hours prior to treatment with compounds of Formula I for 1 hour. The concentration of compounds of Formula I was varied over a 9-point, 3-fold dilution series with 5,000 nM typically being the highest dose. Cell culture and treatment were carried out in a humidified 37° C., 5% CO2 incubator. Treated cells were stimulated with 250 ng/mL recombinant human MCSF for 1 minute to induce activation of cFMS. Cells were lysed in a manner which preserves phosphoproteins, and the lysate was analyzed by ELISA (R&D Systems, Human Phospho-M-CSF R DuoSet IC DYC3268), in which total cFMS protein in the lysate is captured and phosphotyrosine residues of cFMS are detected. A standard curve, made using purified phospho-M-CSF R protein, was used to quantify phospho-c-FMS in compound-treated wells. A standard 4-parameter logistic model was fit to the inhibitor dose response curves, with the IC50 being defined as the concentration of inhibitor giving 50 percent of control (POC).

[3] = target: T3, PDGFR beta (Homo sapiens, UniProt P09619); experiment: Phospho PDGFR LICOR Cell Assay (Example B); assay type: cell-based; settings: averaged IC50; PDGFR beta phosphorylation in HS27 human fibroblast cell line, PDGF-BB stimulation 10 minutes, normalized to total ERK
T3 construct: endogenous in cells; host or cells: HS27 human fibroblast cell line
T3 sequence (P09619 33-1106): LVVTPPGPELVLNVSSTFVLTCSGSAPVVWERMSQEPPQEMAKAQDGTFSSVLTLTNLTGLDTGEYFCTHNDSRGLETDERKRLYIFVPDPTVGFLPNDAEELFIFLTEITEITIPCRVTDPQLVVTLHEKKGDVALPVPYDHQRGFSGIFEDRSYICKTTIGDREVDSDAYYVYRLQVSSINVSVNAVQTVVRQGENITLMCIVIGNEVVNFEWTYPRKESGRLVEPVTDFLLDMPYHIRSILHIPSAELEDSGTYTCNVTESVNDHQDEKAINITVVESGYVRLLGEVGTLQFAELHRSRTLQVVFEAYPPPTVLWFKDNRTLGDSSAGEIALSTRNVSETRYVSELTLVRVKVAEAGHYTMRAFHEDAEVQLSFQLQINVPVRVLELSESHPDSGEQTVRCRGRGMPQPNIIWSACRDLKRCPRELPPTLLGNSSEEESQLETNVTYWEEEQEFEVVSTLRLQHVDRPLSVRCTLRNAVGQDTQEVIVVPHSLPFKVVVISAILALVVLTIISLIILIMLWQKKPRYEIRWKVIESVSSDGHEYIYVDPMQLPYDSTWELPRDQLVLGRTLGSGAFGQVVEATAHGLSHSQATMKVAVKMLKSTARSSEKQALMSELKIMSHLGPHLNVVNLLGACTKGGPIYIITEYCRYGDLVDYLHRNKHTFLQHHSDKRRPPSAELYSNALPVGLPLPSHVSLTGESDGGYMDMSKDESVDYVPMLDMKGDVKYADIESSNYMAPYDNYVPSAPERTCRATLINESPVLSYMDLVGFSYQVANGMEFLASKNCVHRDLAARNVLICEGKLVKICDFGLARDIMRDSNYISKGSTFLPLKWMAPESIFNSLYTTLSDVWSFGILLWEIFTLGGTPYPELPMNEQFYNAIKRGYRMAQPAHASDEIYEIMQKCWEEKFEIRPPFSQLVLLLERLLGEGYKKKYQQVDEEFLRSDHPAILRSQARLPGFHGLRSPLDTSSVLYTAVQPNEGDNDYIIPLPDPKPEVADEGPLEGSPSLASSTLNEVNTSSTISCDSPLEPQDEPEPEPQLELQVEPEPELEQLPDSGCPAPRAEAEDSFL
Experimental: Compounds were screened for inhibition of PDGFR beta phosphorylation in the HS27 human fibroblast cell line. Cells were seeded into a 96 well tissue culture plate, then incubated overnight in a 37° C./5% CO2 incubator. The following day, cells were treated for one hour with test compound dilutions. After stimulation with PDGF-BB ligand for 10 minutes, cells were washed with PBS and fixed in 3.7% formaldehyde in PBS for 10 minutes. This was followed by washing in PBS/0.2% Triton X-100 and permeabilizing in 100% MeOH for 10 minutes. Cells were incubated in blocking buffer for 1 hour. Antibodies to phosphorylated PDGFRβ and total ERK were added to the cells and incubated for 3 hours. After washing with PBS/0.2% Triton X-100, the cells were incubated with fluorescently-labeled secondary antibodies for an additional hour. Cells were then washed with PBS and analyzed for fluorescence at both wavelengths using the Odyssey Infrared Imaging System (LI-COR Biosciences). Phosphorylated PDGFR signal was normalized to total ERK signal. A standard 4-parameter logistic model was fit to the inhibitor dose response curves, with the IC50 being defined as the concentration of inhibitor giving 50 percent of control (POC).

SMILES	IC50 [1] [µM]	IC50 [2] [µM]	IC50 [3] [µM]
Cc1cccc(Cn2nc(C)c3c(NC(=O)c4cnc5cc(OCC(O)CO)ccn45)cccc32)n1 (stereo not drawn) [Example 58, 7-(2,3-dihydroxypropoxy)-N-(3-methyl-1-((6-methylpyridin-2-yl)methyl)-1H-indazol-4-yl)imidazo[1,2-a]pyridine-3-carboxamide]	6.87	0.0219	0.915
Cc1cccc(Cn2nc(C)c3c(NC(=O)c4cnc5cc(OCCN6CCOCC6)ccn45)cccc32)n1 [Example 59, N-(3-methyl-1-((6-methylpyridin-2-yl)methyl)-1H-indazol-4-yl)-7-(2-morpholinoethoxy)imidazo[1,2-a]pyridine-3-carboxamide]	1.49	0.0194	0.0193
Cc1cccc(Cn2nc(C)c3c(NC(=O)c4cnc5cc(OCCN(C)C)ccn45)cccc32)n1 [Example 60, 7-(2-(dimethylamino)ethoxy)-N-(3-methyl-1-((6-methylpyridin-2-yl)methyl)-1H-indazol-4-yl)imidazo[1,2-a]pyridine-3-carboxamide]	4.56	0.0356	5
Cc1cccc(Cn2nc(C)c3c(NC(=O)c4cnc5ccccn45)cccc32)n1 [Example 61, N-(3-methyl-1-((6-methylpyridin-2-yl)methyl)-1H-indazol-4-yl)imidazo[1,2-a]pyridine-3-carboxamide]	0.527	0.0581	0.222
Cc1cccc(Cn2nc(C)c3c(NC(=O)c4cnc5cc(OCCN6CCNCC6)ccn45)cccc32)n1 [Example 64, N-(3-methyl-1-((6-methylpyridin-2-yl)methyl)-1H-indazol-4-yl)-7-(2-(piperazin-1-yl)ethoxy)imidazo[1,2-a]pyridine-3-carboxamide]	1.01	0.0097	0.0941
Cc1cccc(Cn2nc(C)c3c(NC(=O)c4cnc5cc(-c6ccc(=O)n(C)c6)ccn45)cccc32)n1 [Example 65, N-(3-methyl-1-((6-methylpyridin-2-yl)methyl)-1H-indazol-4-yl)-7-(1-methyl-6-oxo-1,6-dihydropyridin-3-yl)imidazo[1,2-a]pyridine-3-carboxamide]	0.647	0.0085	0.212
Cc1nn(Cc2cc(C)n(C(C)C)n2)c2cccc(NC(=O)c3cnc4cc(OCCN5CCN(C)CC5)ccn34)c12 [Example 67, N-(1-((1-isopropyl-5-methyl-1H-pyrazol-3-yl)methyl)-3-methyl-1H-indazol-4-yl)-7-(2-(4-methylpiperazin-1-yl)ethoxy)imidazo[1,2-a]pyridine-3-carboxamide]	0.0606	0.01	0.0103
Cc1cccc(Cn2nc(C)c3c(NC(=O)c4cnc5cc(-c6cnn(C)c6)ccn45)cccc32)n1 [Example 68, N-(3-methyl-1-((6-methylpyridin-2-yl)methyl)-1H-indazol-4-yl)-7-(1-methyl-1H-pyrazol-4-yl)imidazo[1,2-a]pyridine-3-carboxamide]	0.0769	0.005	0.0232
Cc1cccc(Cn2nc(C)c3c(NC(=O)c4cnc5cc(CCN(C)C)ccn45)cccc32)n1 [Example 72, 7-(2-(dimethylamino)ethyl)-N-(3-methyl-1-((6-methylpyridin-2-yl)methyl)-1H-indazol-4-yl)imidazo[1,2-a]pyridine-3-carboxamide]	7.01	0.0242	3.16
Cc1cccc(Cn2nc(C)c3c(NC(=O)c4cnc5cc(CCN6CCN(C)CC6)ccn45)cccc32)n1 [Example 78, N-(3-methyl-1-((6-methylpyridin-2-yl)methyl)-1H-indazol-4-yl)-7-(2-(4-methylpiperazin-1-yl)ethyl)imidazo[1,2-a]pyridine-3-carboxamide]	4.07	0.0173	3.43
COCCOc1ccn2c(C(=O)Nc3cccc4c3c(C)nn4Cc3ccccc3)cnc2c1 [Example 80, N-(1-benzyl-3-methyl-1H-indazol-4-yl)-7-(2-methoxyethoxy)imidazo[1,2-a]pyridine-3-carboxamide]	5.7	0.0082	0.174
Cc1ccc(Cn2nc(C)c3c(NC(=O)c4cnc5ccccn45)cccc32)cn1 [Example 81, N-(3-methyl-1-((6-methylpyridin-3-yl)methyl)-1H-indazol-4-yl)imidazo[1,2-a]pyridine-3-carboxamide]	4.44	0.136	6.44
Cc1ccc(Cn2nc(C)c3c(NC(=O)c4cnc5cc(OCCN6CCN(C)CC6)ccn45)cccc32)cn1 [Example 85, N-(3-methyl-1-((6-methylpyridin-3-yl)methyl)-1H-indazol-4-yl)-7-(2-(4-methylpiperazin-1-yl)ethoxy)imidazo[1,2-a]pyridine-3-carboxamide]	0.303	0.0104	0.401
CCOc1cccc(Cn2nc(C)c3c(NC(=O)c4cnc5cc(OCCN6CCN(C)CC6)ccn45)cccc32)n1 [Example 86, N-(1-((6-ethoxypyridin-2-yl)methyl)-3-methyl-1H-indazol-4-yl)-7-(2-(4-methylpiperazin-1-yl)ethoxy)imidazo[1,2-a]pyridine-3-carboxamide]	0.314	0.007	0.117
COc1cccc(Cn2nc(C)c3c(NC(=O)c4cnc5cc(OCCN6CCN(C)CC6)ccn45)cccc32)n1 [Example 87, N-(1-((6-methoxypyridin-2-yl)methyl)-3-methyl-1H-indazol-4-yl)-7-(2-(4-methylpiperazin-1-yl)ethoxy)imidazo[1,2-a]pyridine-3-carboxamide]	0.372	0.0049	0.0777
Cc1nc(Cn2nc(C)c3c(NC(=O)c4cnc5cc(OCCN6CCN(C)CC6)ccn45)cccc32)cs1 [Example 88, N-(3-methyl-1-((2-methylthiazol-4-yl)methyl)-1H-indazol-4-yl)-7-(2-(4-methylpiperazin-1-yl)ethoxy)imidazo[1,2-a]pyridine-3-carboxamide]	0.51	0.0156	0.18
Cc1cccc(Cn2nc(C)c3c(NC(=O)c4cnc5cc(OCCN6CCN(C)CC6)ccn45)cccc32)n1 [Example 89, N-(3-methyl-1-((6-methylpyridin-2-yl)methyl)-1H-indazol-4-yl)-7-(2-(4-methylpiperazin-1-yl)ethoxy)imidazo[1,2-a]pyridine-3-carboxamide tetrahydrochloride]	1.05	0.0073	0.845
O=C(Nc1cccc2c1cnn2Cc1ccccc1)c1cnc2cc(OCCN3CCOCC3)ccn12 [Example 90, N-(1-benzyl-1H-indazol-4-yl)-7-(2-morpholinoethoxy)imidazo[1,2-a]pyridine-3-carboxamide]	0.0258	0.0098	0.005
COCCOc1ccn2c(C(=O)Nc3cccc4c3cnn4Cc3cccc(C(=O)OC)c3)cnc2c1 [Example 93, Methyl 3-((4-(7-(2-methoxyethoxy)imidazo[1,2-a]pyridine-3-carboxamido)-1H-indazol-1-yl)methyl)benzoate]	0.0064	0.842	0.006
